From patent US20060069084A1, “Methods of inhibiting kinases” (priority 2001, published 2006) come the findings set out here.

What all share (type): biochemical
What all share (conditions): inhibit 50% of activity at 50 μM

In test [1] the target is T1, JAK1 (Homo sapiens, UniProt P23458).
T1 construct: The kinase domain of humanJAK1 was amplified from U937mRNA; His tag (from pFastBac HTb vector; nickel chelate purification) (N); made in house; host or cells: baculovirus; virus made in Sf9, large-scale expression in High Five insect cells
Put plainly: JAK1 kinase domain capture-based ELISA kinase assay. An outline of the steps:
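His-tagged human JAK1 kinase domain was expressed via baculovirus in High Five insect cells and purified on nickel chelate resin. Phosphotyrosine was quantified by ELISA with peroxidase-linked PY20 after capture on avidin plates.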
Background: An ELISA detects its analyte on a solid surface through an enzyme-linked reagent.

Test [2] concerns the target T2, JAK2 (Homo sapiens, UniProt O60674).
T2 construct: The kinase domain of humanJAK2 was amplified from U937mRNA; His tag (from pFastBac HTc vector; nickel chelate purification) (N); made in house; host or cells: baculovirus; virus made in Sf9, large-scale expression in High Five insect cells
Put plainly: JAK2 kinase domain capture-based ELISA kinase assay. An outline of the steps:
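His-tagged human JAK2 kinase domain was baculovirus-expressed in High Five insect cells and nickel-purified. Phosphotyrosine was captured on avidin plates and detected by ELISA with peroxidase-linked PY20.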

Test [3] has as its target T3, JAK3 (Homo sapiens, UniProt P52333).
T3 construct: The kinase domain of humanJAK3 was amplified from U937mRNA; His tag (from pFastBac HTb vector; nickel chelate purification) (N); made in house; host or cells: baculovirus; virus made in Sf9, large-scale expression in High Five insect cells
In words: JAK3 kinase domain capture-based ELISA kinase assay. The gist of the method:
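The human JAK3 kinase domain was His-tagged, baculovirus-expressed in High Five cells and nickel-affinity purified. Tyrosine phosphorylation was quantified on avidin-coated ELISA plates with peroxidase-linked anti-phosphotyrosine antibody PY20.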

The target in test [4] is T4, TYK2 (Homo sapiens, UniProt P29597).
T4 construct: The kinase domain of humanTYK2 was amplified from A549 mRNA; His tag (from pBlueBacHis2A vector; nickel chelate purification) (N); made in house; host or cells: baculovirus; virus made in Sf9, large-scale expression in High Five insect cells
T4 sequence (P29597 897-1176 limits assumed): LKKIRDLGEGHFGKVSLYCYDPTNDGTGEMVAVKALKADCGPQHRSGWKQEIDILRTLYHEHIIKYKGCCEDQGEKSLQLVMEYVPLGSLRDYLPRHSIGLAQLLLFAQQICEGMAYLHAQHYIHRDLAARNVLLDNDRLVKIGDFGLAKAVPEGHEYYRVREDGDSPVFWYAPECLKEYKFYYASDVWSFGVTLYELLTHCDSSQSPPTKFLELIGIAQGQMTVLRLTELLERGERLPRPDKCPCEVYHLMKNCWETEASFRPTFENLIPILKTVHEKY
Put plainly: TYK2 kinase domain capture-based ELISA kinase assay. An outline of the steps:
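His-tagged human TYK2 kinase domain expressed in baculovirus-infected insect cells and Ni-affinity purified. Biotinylated peptide substrate (5 μM final); phosphotyrosine captured on avidin plate and detected by peroxidase-linked PY20 antibody ELISA.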

T2 sequence (O60674 849-1124 limits assumed): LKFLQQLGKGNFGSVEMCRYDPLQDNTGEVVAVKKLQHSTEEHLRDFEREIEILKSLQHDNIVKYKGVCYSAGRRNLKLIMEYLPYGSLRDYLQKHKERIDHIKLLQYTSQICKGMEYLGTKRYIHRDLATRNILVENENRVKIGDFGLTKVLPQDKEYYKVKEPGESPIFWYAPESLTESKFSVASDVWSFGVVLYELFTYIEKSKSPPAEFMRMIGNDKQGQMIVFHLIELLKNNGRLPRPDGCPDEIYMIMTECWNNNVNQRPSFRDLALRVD
T3 sequence (P52333 822-1111 limits assumed): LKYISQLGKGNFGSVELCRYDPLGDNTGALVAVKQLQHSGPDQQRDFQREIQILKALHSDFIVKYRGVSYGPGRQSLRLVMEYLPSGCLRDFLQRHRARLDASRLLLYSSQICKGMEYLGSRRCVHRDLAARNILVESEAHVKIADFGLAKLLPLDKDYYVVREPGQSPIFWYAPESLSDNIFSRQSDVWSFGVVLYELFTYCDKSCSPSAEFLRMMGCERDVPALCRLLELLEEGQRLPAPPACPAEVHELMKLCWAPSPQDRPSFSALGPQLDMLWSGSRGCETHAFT
T1 sequence (P23458 875-1153 limits assumed): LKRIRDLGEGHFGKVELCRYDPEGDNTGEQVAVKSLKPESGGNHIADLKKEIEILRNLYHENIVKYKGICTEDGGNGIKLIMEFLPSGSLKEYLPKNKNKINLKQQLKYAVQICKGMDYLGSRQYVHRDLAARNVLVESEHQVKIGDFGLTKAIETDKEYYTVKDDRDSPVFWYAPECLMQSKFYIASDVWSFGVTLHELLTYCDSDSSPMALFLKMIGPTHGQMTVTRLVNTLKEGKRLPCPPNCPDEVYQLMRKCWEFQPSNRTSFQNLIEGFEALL

The term IC50 denotes the concentration needed to halve the response being measured. In the case of `FC(F)C(F)(F)Oc1cccc(Nc2nc(-c3cc(C(F)(F)F)cc(C(F)(F)F)c3)cn3ccnc23)c1`, the IC50 is under 50 µM in test [1] (Table 6), over 50 µM in test [2] (Table 6), over 50 µM in test [3] (Table 6) and over 50 µM in test [4] (Table 6).

In the case of `CN(C)C(=O)COc1cccc(Nc2nc(-c3cccc(N)c3)cn3ccnc23)c1`, the concentration for half-maximal inhibition (IC50) in test [1] (Table 6), in test [2] (Table 6), in test [3] (Table 6) and in test [4] (Table 6) was under 50 µM each time.

Consider `CCCC/C=C/c1cn2ccnc2c(Nc2ccc(N(CC)CCO)cc2)n1`, for which the concentration for half-maximal inhibition (IC50) in test [1] (Table 6), in test [2] (Table 6), in test [3] (Table 6) and in test [4] (Table 6) was under 50 µM throughout.

`CCN(CCO)c1ccc(Nc2nc(-c3ccccc3)cn3ccnc23)cc1`: the IC50 in test [1] (Table 6), in test [2] (Table 6), in test [3] (Table 6) and in test [4] (Table 6) was under 50 µM throughout.

With `CN(C)C(=O)COc1cccc(Nc2nc(-c3ccccc3)cn3ccnc23)c1`, the IC50 in test [1] (Table 6) is under 50 µM; in test [2] (Table 6), under 50 µM; in test [3] (Table 6), over 50 µM; in test [4] (Table 6), under 50 µM.

For the molecule `CCN(CCO)c1ccc(Nc2nc(-c3ccccc3Cl)cn3ccnc23)cc1`, the 50% inhibitory concentration (IC50) in test [1] (Table 6), in test [2] (Table 6), in test [3] (Table 6) and in test [4] (Table 6) was under 50 µM in each case.

Take `CN(C)C(=O)COc1cccc(Nc2nc(-c3ccccc3Cl)cn3ccnc23)c1`: the 50% inhibitory concentration (IC50) in test [1] (Table 6), in test [2] (Table 6), in test [3] (Table 6) and in test [4] (Table 6) was under 50 µM in each case.

Consider `CCN(CCO)c1ccc(Nc2nc(-c3ccc(F)c(Cl)c3)cn3ccnc23)cc1`, for which the IC50 in test [1] (Table 6) was under 50 µM; in test [2] (Table 6) it was under 50 µM; in test [3] (Table 6), over 50 µM; in test [4] (Table 6), under 50 µM.

Turning to `Fc1ccc(-c2cncc(N3CCN(CCN4CCCC4)CC3)n2)cc1Cl` [CY734702], the IC50 in test [1] (Table 3), in test [2] (Table 3), in test [3] (Table 3) and in test [4] (Table 3) was under 50 µM each time.

For the molecule `COc1cccc(-c2cccc(N3CCN(C)CC3)n2)c1` [CYT13809], the IC50 in test [1] (Table 3), in test [2] (Table 3), in test [3] (Table 3) and in test [4] (Table 3) was under 50 µM throughout.

With `COc1cncc(-c2cccc(Nc3cccnc3)n2)c1` [CYT14607], the IC50 in test [1] (Table 3), in test [2] (Table 3), in test [3] (Table 3) and in test [4] (Table 3) was under 50 µM in each case.

Regarding `c1cncc(Nc2cccc(-c3ccncc3)n2)c1` [CYT14804], the IC50 in test [1] (Table 3), in test [2] (Table 3), in test [3] (Table 3) and in test [4] (Table 3) was under 50 µM each time.

Consider `COc1cncc(-c2cncc(NCc3cccs3)n2)c1` [CYT20303], for which the IC50 in test [1] (Table 3), in test [2] (Table 3), in test [3] (Table 3) and in test [4] (Table 3) was under 50 µM each time.

With `Fc1ccc(CNc2cncc(-c3cccnc3)n2)cc1` [CYT20307], the IC50 in test [1] (Table 3), in test [2] (Table 3), in test [3] (Table 3) and in test [4] (Table 3) was under 50 µM in each case.

Consider `CC(=O)Nc1cccc(-c2cncc(NCc3cccc(Cl)c3)n2)c1` [CYT20310], for which the half-maximal inhibitory concentration (IC50) in test [1] (Table 3), in test [2] (Table 3), in test [3] (Table 3) and in test [4] (Table 3) was under 50 µM each time.

With `COc1cncc(-c2cncc(NCc3ccco3)n2)c1` [CYT20406], the IC50 in test [1] (Table 3), in test [2] (Table 3), in test [3] (Table 3) and in test [4] (Table 3) was under 50 µM in each case.

Regarding `C[C@H](Nc1cncc(-c2cccc(CO)c2)n1)c1ccccc1` [CYT20504], the half-maximal inhibitory concentration (IC50) in test [1] (Table 3), in test [2] (Table 3), in test [3] (Table 3) and in test [4] (Table 3) was under 50 µM in each case.

As to `OCc1cccc(-c2cncc(NCc3ccccc3)n2)c1` [CYT20506], the IC50 in test [1] (Table 3), in test [2] (Table 3), in test [3] (Table 3) and in test [4] (Table 3) was under 50 µM throughout.

For `CC(=O)Nc1cccc(-c2cncc(N[C@@H](C)c3ccccc3)n2)c1` [CYT20508], the half-inhibitory concentration (IC50) in test [1] (Table 3), in test [2] (Table 3), in test [3] (Table 3) and in test [4] (Table 3) was under 50 µM in each case.

As to `COc1cc(-c2cncc(N[C@@H](C)c3ccccc3)n2)cc(OC)c1OC` [CYT20510], the half-inhibitory concentration (IC50) in test [1] (Table 3), in test [2] (Table 3), in test [3] (Table 3) and in test [4] (Table 3) was under 50 µM throughout.

For the molecule `COc1cncc(-c2cncc(NCC(C)(C)CO)n2)c1` [CYT21103], the 50% inhibitory concentration (IC50) in test [1] (Table 3), in test [2] (Table 3), in test [3] (Table 3) and in test [4] (Table 3) was under 50 µM in each case.

For the molecule `COc1cc(-c2cncc(NCCc3ccncc3)n2)cc(OC)c1OC` [CYT21404], the 50% inhibitory concentration (IC50) in test [1] (Table 3), in test [2] (Table 3), in test [3] (Table 3) and in test [4] (Table 3) was under 50 µM each time.

`COc1cncc(-c2cncc(N[C@H](CO)C(C)C)n2)c1` [CYT21507]: the 50% inhibitory concentration (IC50) in test [1] (Table 3), in test [2] (Table 3), in test [3] (Table 3) and in test [4] (Table 3) was under 50 µM in each case.

In the case of `COc1cncc(-c2cncc(NCc3ccc(F)cc3)n2)c1` [CYT24108], the half-maximal inhibitory concentration (IC50) in test [1] (Table 3), in test [2] (Table 3), in test [3] (Table 3) and in test [4] (Table 3) was under 50 µM in each case.

On to `COc1cncc(-c2cncc(N[C@@H](C)c3ccccc3)n2)c1` [CYT24510], for which the concentration for half-maximal inhibition (IC50) in test [1] (Table 3), in test [2] (Table 3), in test [3] (Table 3) and in test [4] (Table 3) was under 50 µM in each case.

For the molecule `COc1cncc(-c2cncc(NCc3ccccc3)n2)c1` [CYT24605], the IC50 in test [1] (Table 3), in test [2] (Table 3), in test [3] (Table 3) and in test [4] (Table 3) was under 50 µM each time.

Regarding `c1ccc(CNc2cncc(-c3cccnc3)n2)cc1` [CYT24803], the half-inhibitory concentration (IC50) in test [1] (Table 3), in test [2] (Table 3), in test [3] (Table 3) and in test [4] (Table 3) was under 50 µM throughout.

`COc1cc(-c2cncc(NCc3ccccc3)n2)cc(OC)c1OC` [CYT25209]: the IC50 in test [1] (Table 3), in test [2] (Table 3), in test [3] (Table 3) and in test [4] (Table 3) was under 50 µM in each case.

On to `OCc1ccccc1-c1cncc(NCc2ccccc2)n1` [CYT25210], for which the IC50 in test [1] (Table 3), in test [2] (Table 3), in test [3] (Table 3) and in test [4] (Table 3) was under 50 µM each time.

`COc1cc(-c2cncc(NCCO)n2)cc(OC)c1OC` [CYT28608]: the IC50 in test [1] (Table 3), in test [2] (Table 3), in test [3] (Table 3) and in test [4] (Table 3) was under 50 µM each time.

`C[C@@H](Nc1cncc(-c2cccc(N)c2)n1)c1ccccc1` [CYT31106]: the half-inhibitory concentration (IC50) in test [1] (Table 3), in test [2] (Table 3), in test [3] (Table 3) and in test [4] (Table 3) was under 50 µM throughout.

For the molecule `CC(=O)Nc1cccc(-c2cncc(N[C@H](C)c3ccccc3)n2)c1` [CYT32102], the IC50 in test [1] (Table 3), in test [2] (Table 3), in test [3] (Table 3) and in test [4] (Table 3) was under 50 µM each time.

For the molecule `COc1cc(-c2cncc(N[C@H](C)c3ccccc3)n2)cc(OC)c1OC` [CYT32107], the half-inhibitory concentration (IC50) in test [1] (Table 3), in test [2] (Table 3), in test [3] (Table 3) and in test [4] (Table 3) was under 50 µM each time.

`COc1cc(-c2cncc(Nc3ccc(C#N)cc3)n2)cc(OC)c1OC` [CYT32302]: the IC50 in test [1] (Table 3), in test [2] (Table 3), in test [3] (Table 3) and in test [4] (Table 3) was under 50 µM throughout.

Consider `Oc1ccc(-c2cncc(N3CCN(Cc4ccccn4)CC3)n2)cc1` [CYT32602], for which the IC50 in test [1] (Table 3), in test [2] (Table 3), in test [3] (Table 3) and in test [4] (Table 3) was under 50 µM each time.

`COc1ccc(N2CCN(c3cncc(-c4ccc(CC(N)C(=O)O)cc4)n3)CC2)cc1OC` (stereo not drawn) [CYT34205]: the IC50 in test [1] (Table 3), in test [2] (Table 3), in test [3] (Table 3) and in test [4] (Table 3) was under 50 µM in each case.
